Test results reported in US20230115611A1, “TREATMENT OF PAIN AND VASOCONSTRICTION” (Aisa Pharma, Inc., priority 2020, published 2023).

What was measured:
human Nav 1.7 = molecular target: T1, human Nav 1.7 (Homo sapiens, UniProt Q15858); test: Nav 1.7 sodium channel inhibition, automated patch clamp (QPATCH II), two pulse voltage protocol; type: cell-based; conditions: for Mean % inhibition-closed state: closed state (P1) of Nav 1.7; for Mean % inhibition-closed state / Mean % inhibition-inactivated state: CHO cells, compound at/around Cmax concentration as in Table 4; for Mean % inhibition-inactivated state: inactivated state (P2) of Nav 1.7; for ranking of the compounds in terms of efficacy: Nav 1.7 inhibition at Cmax
T1 construct: expressed in transfected cells
T1 sequence (Q15858 whole entry): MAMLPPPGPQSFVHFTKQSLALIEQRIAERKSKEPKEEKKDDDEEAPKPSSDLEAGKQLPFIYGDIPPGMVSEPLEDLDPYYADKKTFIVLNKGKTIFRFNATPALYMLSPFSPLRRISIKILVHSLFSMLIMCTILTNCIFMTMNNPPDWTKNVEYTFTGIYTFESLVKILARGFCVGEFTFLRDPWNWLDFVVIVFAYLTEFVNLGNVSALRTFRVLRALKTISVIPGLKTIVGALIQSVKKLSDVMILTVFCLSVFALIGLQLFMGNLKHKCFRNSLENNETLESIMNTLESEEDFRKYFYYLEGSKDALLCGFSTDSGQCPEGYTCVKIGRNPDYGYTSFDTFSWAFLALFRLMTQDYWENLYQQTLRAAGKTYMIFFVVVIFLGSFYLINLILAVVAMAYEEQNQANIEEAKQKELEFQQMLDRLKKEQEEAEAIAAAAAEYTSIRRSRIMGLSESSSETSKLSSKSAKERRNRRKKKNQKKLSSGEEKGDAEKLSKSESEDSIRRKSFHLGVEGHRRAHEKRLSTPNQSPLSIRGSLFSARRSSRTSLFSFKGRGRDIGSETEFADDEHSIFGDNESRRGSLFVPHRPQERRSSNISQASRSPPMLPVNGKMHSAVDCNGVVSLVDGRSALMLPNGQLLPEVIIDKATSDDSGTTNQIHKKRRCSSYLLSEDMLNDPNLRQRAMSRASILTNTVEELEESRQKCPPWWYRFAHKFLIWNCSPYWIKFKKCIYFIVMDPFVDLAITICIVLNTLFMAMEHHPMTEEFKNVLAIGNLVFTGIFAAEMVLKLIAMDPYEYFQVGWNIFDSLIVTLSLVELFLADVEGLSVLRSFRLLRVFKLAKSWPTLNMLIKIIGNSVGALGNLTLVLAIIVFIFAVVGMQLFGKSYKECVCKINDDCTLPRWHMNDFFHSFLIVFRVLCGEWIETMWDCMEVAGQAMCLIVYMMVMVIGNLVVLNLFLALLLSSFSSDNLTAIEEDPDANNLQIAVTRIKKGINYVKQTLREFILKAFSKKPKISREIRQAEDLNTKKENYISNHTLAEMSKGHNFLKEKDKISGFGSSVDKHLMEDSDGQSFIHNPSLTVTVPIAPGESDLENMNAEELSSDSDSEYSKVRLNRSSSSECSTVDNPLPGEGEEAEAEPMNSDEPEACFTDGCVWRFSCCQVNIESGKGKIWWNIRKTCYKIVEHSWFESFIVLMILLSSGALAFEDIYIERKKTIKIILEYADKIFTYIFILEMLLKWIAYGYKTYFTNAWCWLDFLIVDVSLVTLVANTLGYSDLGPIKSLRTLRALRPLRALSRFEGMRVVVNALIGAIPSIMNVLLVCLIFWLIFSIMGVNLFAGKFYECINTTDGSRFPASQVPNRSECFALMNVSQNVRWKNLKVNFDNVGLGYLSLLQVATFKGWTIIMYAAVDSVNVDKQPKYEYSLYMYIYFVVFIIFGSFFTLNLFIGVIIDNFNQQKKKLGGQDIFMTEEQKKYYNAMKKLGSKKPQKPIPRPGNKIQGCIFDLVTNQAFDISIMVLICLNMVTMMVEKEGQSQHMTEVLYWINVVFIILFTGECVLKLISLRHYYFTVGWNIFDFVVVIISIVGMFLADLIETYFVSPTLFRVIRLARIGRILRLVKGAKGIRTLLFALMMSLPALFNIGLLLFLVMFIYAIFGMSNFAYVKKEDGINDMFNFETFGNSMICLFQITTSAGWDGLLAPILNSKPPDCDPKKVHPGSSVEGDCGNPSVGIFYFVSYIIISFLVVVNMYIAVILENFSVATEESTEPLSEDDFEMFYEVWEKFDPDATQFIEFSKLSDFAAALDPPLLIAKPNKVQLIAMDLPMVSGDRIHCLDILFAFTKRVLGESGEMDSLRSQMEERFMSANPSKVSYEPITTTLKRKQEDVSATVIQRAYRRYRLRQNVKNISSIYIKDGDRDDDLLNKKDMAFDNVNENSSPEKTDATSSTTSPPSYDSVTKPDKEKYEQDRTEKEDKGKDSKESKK
Procedure: Chinese Hamster Ovary (CHO) cells stably expressing human Nav 1.7 were cultured according to the manufacturer's standard operating procedure (SOP) and enzymatically lifted into solution following Sophion's standard SOP.
Voltage protocol 1 (VP1): A voltage protocol designed to generate a current voltage relationship and to estimate the half inactivation potential (V1/2) was used. The first voltage protocol was used as quality control and the latter was used later in the experiment (see below).
Voltage protocol 2 (VP2): Two pulse voltage protocol. FIG. 2 depicts a two pulse voltage protocol. The line marked with an asterisk indicates the voltage that was applied to the cell. In the beginning, all channels were in the closed state (V=−120 mV). A depolarization step to V=10 mV (P1) activated all channels and produced the largest possible current. Next, cells were kept at the V1/2 value for 1 s. […] A second stimulation to V=−10 mV activated all channels that were in the closed state (50%). Compound effects were assessed at both P1 and P2. State dependent compounds will show a different degree of inhibition at the two different pulses. This protocol was repeated every 10 s to monitor compound effects on the channel.

[1] = oral dose 10 mg; reference value; cited from earlier work

SMILES | Mean % inhibition-closed state (human Nav 1.7) | Mean % inhibition-inactivated state (human Nav 1.7) | activity at the sodium channel subunit Nav 1.7 (human Nav 1.7) | ranking of the compounds in terms of efficacy (human Nav 1.7) | activity at Nav 1.7 compared with bupivacaine (human Nav 1.7; cilnidipine at 20 mg dose) | activity at Nav 1.7 compared with gabapentin (human Nav 1.7; cilnidipine at 20 mg dose) | activity at Nav 1.7 relative to amlodipine (human Nav 1.7; comparable clinical doses (amlodipine 5 mg to cilnidipine 10 mg and amlodipine 10 mg to cilnidipine 20 mg)) | higher relative inhibition of Nav 1.7 than amlodipine (human Nav 1.7; plasma concentrations achieved with 10 mg cilnidipine versus clinically comparable 5 mg amlodipine) | Cmax [1]
CCOC(=O)C1=C(COCCN)NC(C)=C(C(=O)OC)C1c1ccccc1Cl (centres unmarked) [amlodipine] | −7.4% | 7.8% | – | – | – | – | – | – | –
COCCOC(=O)C1=C(C)NC(C)=C(C(=O)OC/C=C/c2ccccc2)C1c1cccc([N+](=O)[O-])c1 (centres unmarked) [cilnidipine] | −6.7% | 18.5% | clinically meaningful activity | gabapentin<amlodipine<cilnidipine nifedipine | appears to be greater than a sodium channel blocker and local anesthetic, bupivacaine | greater than gabapentin | about 5 × | 9.5% | 5.9 ± 1.2 ng/mL
CCCCN1CCCCC1C(=O)Nc1c(C)cccc1C (centres unmarked) [bupivacaine] | 2.5% | 20% | – | – | – | – | – | – | –
C[S+](C)[O-] [DMSO] | −2.7% | 38.7% | – | – | – | – | – | – | –
NCC1(CC(=O)O)CCCCC1 [gabapentin] | −5.2% | 6.3% | – | gabapentin<amlodipine<cilnidipine nifedipine | – | – | – | – | –
CCN(CC)CC(=O)Nc1c(C)cccc1C [lidocaine] | 40.9% | 89.0% | – | – | – | – | – | – | –
